The source of these data is publication PMC7114444 (Virus Research, 2014).

“Also recorded” adds a separate entry of the source.

One experiment has as its system NFAT3-GFP. Nature of the experiment: NFAT-GFP nuclear translocation assay. The note with it: HeLa cells, 40 nM drug, 2 μM ionomycin. The class given is cell-based.
A further experiment relates to lymphocyte. The note with it: lymphocyte proliferation assays, ref Sadeg et al., 1993a, 1993b; cited from earlier work.
The test system of a further experiment is HCoV-NL63. As to the kind of experiment: HCoV-NL63 replication in Caco-2 cells, qPCR of genome equivalents. The class given is cell-based. The note with it: Human coronavirus NL63, Caco-2, 48 h, read-out: Inhibition of HCoV-NL63 in CaCo-2 EC50.
A further experiment has as its system HCoV-NL63 N-protein. Nature of the experiment: Western blot of N protein expression in HCoV-NL63-infected CaCo-2 cells. To be noted: for N-protein expression at 20 μM: 48 h, 20 μM inhibitor. The class given is cell-based.

For `C/C=C/C[C@@H](C)[C@@H](O)[C@H]1C(=O)N[C@@H](C(C)C)C(=O)N(C)CC(=O)N(C)[C@@H](CC(C)C)C(=O)N[C@@H](C(C)C)C(=O)N(C)[C@@H](CC(C)C)C(=O)N[C@@H](C)C(=O)N[C@H](C)C(=O)N(C)[C@@H](CC(C)C)C(=O)N(C)[C@@H](CC(C)C)C(=O)N(C)[C@@H](C(C)C)C(=O)N1C` [CsD], the “NFAT-GFP nuclear translocation” value with NFAT3-GFP was “NFAT is not transferred to the nucleus; also recorded: showed the same behavior as CsA; also recorded: remained in the cytoplasm”. In addition, the “immunosuppressive activity relative to CsA activity” value in the experiment with lymphocyte was “about 10%”.

On to `C=CC[C@@H]1/C=C(\C)C[C@H](C)C[C@H](OC)[C@H]2O[C@@](O)(C(=O)C(=O)N3CCCC[C@H]3C(=O)O[C@H](/C(C)=C/[C@@H]3CC[C@@H](O)[C@H](OC)C3)[C@H](C)[C@@H](O)CC1=O)[C@H](C)C[C@@H]2OC` [FK506], for which the “NFAT-GFP nuclear translocation” value with NFAT3-GFP was “NFAT is not transferred to the nucleus; also recorded: remained in the cytoplasm”. In the experiment on HCoV-NL63, the EC50 amounted to 6600 nM.

Take `C/C=C/C[C@@H](C)[C@@H](O)[C@H]1C(=O)N[C@@H](CC)C(=O)N(C)[C@H](C)C(=O)N(CC)[C@@H](C(C)C)C(=O)N[C@@H](C(C)C)C(=O)N(C)[C@@H](CC(C)C)C(=O)N[C@@H](C)C(=O)N[C@H](C)C(=O)N(C)[C@@H](CC(C)C)C(=O)N(C)[C@@H](CC(C)C)C(=O)N(C)[C@@H](C(C)C)C(=O)N1C` [ALV, Alisporivir]: the “NFAT-GFP nuclear translocation” value in the experiment with NFAT3-GFP is “allow NFAT-GFP translocation to the nucleus; also recorded: NFAT migrated to the nucleus”. Moreover, in the experiment on HCoV-NL63, the EC50 was determined as 800 nM. Further, the “N-protein expression at 20 μM” value in the experiment with HCoV-NL63 N-protein is reported as “not detectable any more”. For the same compound, in the experiment on HCoV-NL63 N-protein (discussion statement), the “concentration above which N protein is not detectable any more” value was “above 5 μM” and the “concentration at which N protein decreased” value was 1.25 µM.

On to `C/C=C/C[C@@H](C)[C@@H](O)[C@H]1C(=O)N[C@@H](CC)C(=O)N(C)CC(=O)N(C)[C@@H]([C@@H](C)CC)C(=O)N[C@@H](C(C)C)C(=O)N(C)[C@@H](CC(C)C)C(=O)N[C@@H](C)C(=O)N[C@H](C)C(=O)N(C)[C@@H](CC(C)C)C(=O)N(C)[C@@H](CC(C)C)C(=O)N(C)[C@@H](C(C)C)C(=O)N1C` [NIM811], for which, in the experiment on NFAT3-GFP, the “NFAT-GFP nuclear translocation” value is “allow NFAT-GFP translocation to the nucleus; also recorded: NFAT migrated to the nucleus”. For the same compound, in the experiment with HCoV-NL63, the EC50 came to 800 nM. In addition, in the experiment with HCoV-NL63 N-protein, the “N-protein expression at 20 μM” value is “not detectable any more”. The “concentration above which N protein is not detectable any more” value in the experiment with HCoV-NL63 N-protein (discussion statement) is “above 5 μM”.
